What all share (type): tissue-based
Experiment [1] addresses T1, Mitogen-activated protein kinase 14 (Homo sapiens, UniProt Q16539). The experiment is described as follows: Inhibition of p38 alpha MAPK in human whole blood assessed as phosphorylation of ATF-2 by immunosorbent non-radioactive enzyme assay.
In experiment [2] the target is T1, Mitogen-activated protein kinase 14. As to the kind of experiment: Inhibition of p38 alpha MAPK in human whole blood assessed as suppression of LPS-induced TNF-alpha release by immunosorbent non-radioactive enzyme assay relative to SB203580.
For experiment [3] the target is unchanged. As to the kind of experiment: Inhibition of p38 alpha MAPK in human whole blood assessed as suppression of LPS-induced TNF-alpha release by immunosorbent non-radioactive enzyme assay.
Experiment [4] shares this target. As to the kind of experiment: Inhibition of p38 alpha MAPK in human whole blood assessed as phosphorylation of ATF-2 by immunosorbent non-radioactive enzyme assay relative to SB203580.

Structures are written as SMILES.

T1 sequence (Q16539 whole entry): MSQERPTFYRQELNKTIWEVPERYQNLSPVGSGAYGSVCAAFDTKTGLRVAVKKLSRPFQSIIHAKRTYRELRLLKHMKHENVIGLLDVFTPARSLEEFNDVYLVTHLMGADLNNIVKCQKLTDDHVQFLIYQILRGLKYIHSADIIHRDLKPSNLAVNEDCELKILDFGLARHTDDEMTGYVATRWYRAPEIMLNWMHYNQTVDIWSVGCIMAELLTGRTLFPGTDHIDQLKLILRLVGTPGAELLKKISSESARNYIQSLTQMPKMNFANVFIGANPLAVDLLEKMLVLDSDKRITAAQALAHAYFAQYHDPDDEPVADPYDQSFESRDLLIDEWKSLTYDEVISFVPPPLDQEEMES

With `CC(C)[C@H](C)Nc1cc(-c2[nH]c([S@+](C)[O-])nc2-c2ccc(F)cc2)ccn1`, the IC50 (in general, the concentration that inhibits the measured activity by half) turned out to be 27 nM in experiment [1] and 250 nM in experiment [3]. The Ratio IC50 in experiment [2] was 6.8; in experiment [4], 2.15. Take `C[S@+]([O-])c1nc(-c2ccnc(NC3CCOCC3)c2)c(-c2ccc(F)cc2)[nH]1`: the IC50 in experiment [1] came out at 34 nM; in experiment [3], 830 nM. For the compound `CC(C)[C@@H](C)Nc1cc(-c2[nH]c([S@@+](C)[O-])nc2-c2ccc(F)cc2)ccn1`, the values for the IC50 in experiment [1] and in experiment [3] were 31 nM and 900 nM, respectively. The results for the Ratio IC50 in experiment [2] and in experiment [4] were 1.72 and 2.32, respectively. Consider `CC(=O)Nc1cc(-c2c(-c3ccc(F)cc3)nc([S@@+](C)[O-])n2C)ccn1`, for which, in experiment [1], the IC50 came to 1030 nM. Moreover, the Ratio IC50 in experiment [4] turned out to be 0.035. The like results for `C[C@@H](Nc1cc(-c2[nH]c([S+](C)[O-])nc2-c2ccc(F)cc2)ccn1)c1ccccc1` (mixture of isomers) were, in that order, 207 nM and 0.28. As for `C[C@H](Nc1cc(-c2[nH]c([S@+](C)[O-])nc2-c2ccc(F)cc2)ccn1)c1ccccc1`, the Ratio IC50 in experiment [2] is 0.28; in experiment [4], 0.62. The like results for `C[S@+]([O-])c1nc(-c2ccc(F)cc2)c(-c2ccnc(NC3CCOCC3)c2)[nH]1` were, in that order, 2.05 and 1.38. As for `CC(=O)Nc1cc(-c2nc([S@@+](C)[O-])[nH]c2-c2ccc(F)cc2)ccn1`, in experiment [1], the IC50 was found to be 161 nM. With `C[S@+]([O-])c1nc(-c2ccnc(NC(=O)Cc3ccc(F)cc3)c2)c(-c2ccc(F)cc2)[nH]1`, the IC50 in experiment [1] came to 141 nM; in experiment [3] it was 7530 nM. The like results for `CC(C)[S@+]([O-])c1nc(-c2ccnc(NC3CCCCC3)c2)c(-c2ccc(F)cc2)[nH]1` were, in that order, 21 nM and 340 nM. In the case of `CC(C)Sc1nc(-c2ccc(F)cc2)c(-c2ccnc(NC3CCCCC3)c2)[nH]1`, the Ratio IC50 turned out to be 2.86 in experiment [2] and 4.17 in experiment [4]. As to `CC(C)[S@+]([O-])c1nc(-c2ccc(F)cc2)c(-c2ccnc(NC3CCCCC3)c2)[nH]1`, the results for the Ratio IC50 in experiment [2] and in experiment [4] were 5.62 and 1.62, respectively. The like results for `C[S@@+]([O-])c1nc(-c2ccc(F)cc2)c(-c2ccnc(NC3CCOCC3)c2)[nH]1` were, in that order, 2.15 and 4.45.

Take `CC(C)Nc1cc(-c2nc([S@@+]([O-])C(C)C)[nH]c2-c2ccc(F)cc2)ccn1`: the IC50 amounted to 6 nM in experiment [1] and 610 nM in experiment [3]. Take `CSc1nc(-c2ccc(F)cc2)c(-c2ccnc(NC(C)=O)c2)[nH]1`: in experiment [1], the IC50 is 37 nM. Also, the Ratio IC50 in experiment [4] amounted to 2.11. Take `CC(=O)Nc1cc(-c2[nH]c([S@@+](C)[O-])nc2-c2ccc(F)cc2)ccn1`: the Ratio IC50 in experiment [4] turned out to be 0.55. `C[S@+]([O-])c1nc(-c2ccc(F)cc2)c(-c2ccnc(NC3CCCCC3)c2)[nH]1`: the Ratio IC50 in experiment [2] amounted to 2.08; in experiment [4] it was 1.48.

For the compound `CC(C)[C@H](C)Nc1cc(-c2nc([S@@+](C)[O-])[nH]c2-c2ccc(F)cc2)ccn1`, the IC50 in experiment [1] was found to be 19 nM; in experiment [3], 200 nM.

Consider `C[C@@H](Nc1cc(-c2[nH]c([S@@+](C)[O-])nc2-c2ccc(F)cc2)ccn1)c1ccccc1`, for which the Ratio IC50 in experiment [4] was 0.49.

Consider `CSc1nc(-c2ccnc(NC3CCCCC3)c2)c(-c2ccc(F)cc2)[nH]1`, for which the half-inhibitory concentration (IC50) in experiment [1] amounted to 27 nM; in experiment [3], 170 nM. The matching figures for `C[S@+]([O-])c1nc(-c2ccnc(NC3CCCCC3)c2)c(-c2ccc(F)cc2)[nH]1`: 50 nM and 590 nM. `CC(C)Nc1cc(-c2[nH]c([S@@+](C)[O-])nc2-c2ccc(F)cc2)ccn1`: the Ratio IC50 in experiment [2] worked out at 3.62; in experiment [4], 5.08. Turning to `CC(=O)Nc1cc(-c2[nH]c([S+](C)[O-])nc2-c2ccc(F)cc2)ccn1` (racemic), the IC50 in experiment [1] was determined as 403 nM. Besides, the Ratio IC50 in experiment [4] stood at 0.1. Turning to `CC(C)Sc1nc(-c2ccnc(NC3CCCCC3)c2)c(-c2ccc(F)cc2)[nH]1`, the figures for the IC50 in experiment [1] and in experiment [3] were 12 nM and 650 nM, respectively. The matching figures for `CC(C)Nc1cc(-c2nc([S@@+](C)[O-])[nH]c2-c2ccc(F)cc2)ccn1`: 12 nM and 530 nM. Take `CSc1nc(-c2ccnc(NC(=O)Cc3ccc(F)cc3)c2)c(-c2ccc(F)cc2)[nH]1`: the IC50 in experiment [3] was 2980 nM. For the compound `C[C@H](Nc1cc(-c2nc([S@+](C)[O-])[nH]c2-c2ccc(F)cc2)ccn1)c1ccccc1`, the 50% inhibitory concentration (IC50) in experiment [1] amounted to 45 nM; in experiment [3] it was 5520 nM.

For the compound `CC(C)[C@@H](C)Nc1cc(-c2[nH]c([S@+](C)[O-])nc2-c2ccc(F)cc2)ccn1`, the results for the Ratio IC50 in experiment [2] and in experiment [4] were 2.07 and 1.44, respectively. As for `CSc1nc(-c2ccc(F)cc2)c(-c2ccnc(NC3CCCCC3)c2)[nH]1`, the figures for the Ratio IC50 in experiment [2] and in experiment [4] were 7.24 and 2.89, respectively. For `CSc1nc(-c2ccc(F)cc2)c(-c2ccnc(NC(=O)Cc3ccc(F)cc3)c2)[nH]1`, the Ratio IC50 in experiment [2] worked out at 0.66; in experiment [4], 3.44. The like results for `CC(C)Nc1cc(-c2[nH]c([S@+]([O-])C(C)C)nc2-c2ccc(F)cc2)ccn1` were, in that order, 4.24 and 9.25. As for `CC(=O)Nc1cc(-c2[nH]c([S@+](C)[O-])nc2-c2ccc(F)cc2)ccn1`, in experiment [1], the IC50 was determined as 197 nM. The Ratio IC50 in experiment [4] was 0.45. The matching figures for `CC(=O)Nc1cc(-c2c(-c3ccc(F)cc3)nc([S@+](C)[O-])n2C)ccn1`: 1260 nM and 0.028.

For the compound `C[C@@H](Nc1cc(-c2[nH]c([S@+](C)[O-])nc2-c2ccc(F)cc2)ccn1)c1ccccc1`, in experiment [1], the IC50 is 200 nM. Further, the Ratio IC50 in experiment [4] was determined as 0.42. `C[S@@+]([O-])c1nc(-c2ccnc(NC3CCOCC3)c2)c(-c2ccc(F)cc2)[nH]1`: the half-maximal inhibitory concentration (IC50) turned out to be 11 nM in experiment [1] and 790 nM in experiment [3]. Regarding `CSc1nc(-c2ccnc(NC3CCOCC3)c2)c(-c2ccc(F)cc2)[nH]1`, in experiment [3], the IC50 is 180 nM.

Take `CC(C)Nc1cc(-c2nc([S@+]([O-])C(C)C)[nH]c2-c2ccc(F)cc2)ccn1`: the IC50 in experiment [1] turned out to be 4 nM; in experiment [3], 450 nM. As to `C[S@+]([O-])c1nc(-c2ccc(F)cc2)c(-c2ccnc(NC(=O)Cc3ccc(F)cc3)c2)[nH]1`, the Ratio IC50 in experiment [2] came out at 0.23; in experiment [4], 0.55. For `CC(=O)Nc1cc(-c2c(-c3ccc(F)cc3)nc([S+](C)[O-])n2C)ccn1` (racemic), the IC50 in experiment [1] came to 1070 nM. For the same compound, in experiment [4], the Ratio IC50 amounted to 0.042. With `CC(C)[C@H](C)Nc1cc(-c2[nH]c([S@@+](C)[O-])nc2-c2ccc(F)cc2)ccn1`, the Ratio IC50 in experiment [2] was found to be 8.5; in experiment [4] it was 3.05. Turning to `CC(C)[C@@H](C)Nc1cc(-c2nc([S@+](C)[O-])[nH]c2-c2ccc(F)cc2)ccn1`, the IC50 in experiment [1] amounted to 36 nM; in experiment [3], 750 nM.

As to `C[C@@H](Nc1cc(-c2nc([S@@+](C)[O-])[nH]c2-c2ccc(F)cc2)ccn1)c1ccccc1`, the IC50 in experiment [1] was determined as 168 nM.

As for `CC(C)Nc1cc(-c2[nH]c([S@@+]([O-])C(C)C)nc2-c2ccc(F)cc2)ccn1`, the Ratio IC50 amounted to 3.13 in experiment [2] and 6.17 in experiment [4]. The like results for `CSc1nc(-c2ccc(F)cc2)c(-c2ccnc(NC3CCOCC3)c2)[nH]1` were, in that order, 10.7 and 9.8. As to `CSc1nc(-c2ccc(F)cc2)c(-c2ccnc(NC(C)=O)c2)n1C`, in experiment [1], the IC50 turned out to be 188 nM. In addition, the Ratio IC50 in experiment [4] was 0.28.

The values are drawn from ChEMBL document CHEMBL1773061, “Chiral sulfoxides as metabolites of 2-thioimidazole-based p38α mitogen-activated protein kinase inhibitors: enantioselective synthesis and biological evaluation” (J Med Chem, 2011).
